The values below come from patent US9394305B2, “Substituted imidazo[1,2-a]pyridine compounds as tropomyosin receptor kinase a (TrkA) inhibitors” (Dr. Reddy's Laboratories Ltd., priority 2014, dated 2016).

A value given as a limit tells only on which side of the number the result lay.

T1 sequence (P04629 33-796): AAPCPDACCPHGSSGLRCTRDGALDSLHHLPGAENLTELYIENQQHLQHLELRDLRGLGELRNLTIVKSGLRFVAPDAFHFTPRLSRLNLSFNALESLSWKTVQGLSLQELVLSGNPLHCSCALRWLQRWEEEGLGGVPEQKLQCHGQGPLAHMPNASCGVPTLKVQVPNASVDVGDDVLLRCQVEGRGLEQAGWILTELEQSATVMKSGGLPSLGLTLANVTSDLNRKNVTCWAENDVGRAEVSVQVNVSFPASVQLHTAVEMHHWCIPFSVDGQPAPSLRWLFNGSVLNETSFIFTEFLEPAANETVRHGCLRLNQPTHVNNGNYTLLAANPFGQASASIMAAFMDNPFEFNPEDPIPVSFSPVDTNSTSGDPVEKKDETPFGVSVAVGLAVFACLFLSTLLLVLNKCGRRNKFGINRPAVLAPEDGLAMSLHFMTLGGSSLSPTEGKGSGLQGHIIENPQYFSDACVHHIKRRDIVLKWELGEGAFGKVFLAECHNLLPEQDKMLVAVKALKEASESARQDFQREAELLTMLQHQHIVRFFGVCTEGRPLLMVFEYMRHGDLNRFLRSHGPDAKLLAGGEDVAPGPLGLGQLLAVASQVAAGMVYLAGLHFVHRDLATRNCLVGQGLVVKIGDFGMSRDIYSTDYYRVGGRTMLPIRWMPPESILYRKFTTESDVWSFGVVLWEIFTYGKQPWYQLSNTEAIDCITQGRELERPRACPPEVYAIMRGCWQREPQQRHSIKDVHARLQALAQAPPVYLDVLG

This experiment has as its target T1, TrkA kinase (Homo sapiens, UniProt P04629).
T1 construct: purchased Upstate, USA
The experiment is described as follows: In vitro TrkA inhibitory activity using TR-FRET assay. To be noted: 5 ng TrkA, 500 μM ATP, values given as bins, read-out: TrkA inhibition in-vitro IC50. The format is biochemical. The procedure, abridged: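 TrkA kinase (5 ng) was preincubated 30 min at 20-35° C. with compound (1% DMSO final), then 40 nM ULight poly GT and 500 μM ATP were added for 30 min before an EDTA stop. Phosphorylation was detected by Eu anti-phosphotyrosine TR-FRET (ex 340, em 615/665 nm), and IC50 came from sigmoidal fits of 1/3 serial dilutions.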
(Time-resolved FRET reads energy transfer from a long-lived donor to a nearby acceptor.)
On to `CC(C)(C)S(=O)(=O)NC(=O)c1cnc2ccc(N3C[C@@H](F)C[C@@H]3c3cc(F)ccc3OCCF)cn12` [Example 58, N-(tert-butylsulfonyl)-6-((2R,4S)-4-fluoro-2-(5-fluoro-2-(2-fluoroethoxy)phenyl)pyrrolidin-1-yl)imidazo[1,2-a] pyridine-3-carboxamide], for which the IC50 – broadly, the midpoint of a concentration-inhibition curve – is no more than 50 nM.
With `CC(C)(C)S(=O)(=O)NC(=O)c1cnc2ccc(N3C[C@@H](F)C[C@@H]3c3cc(F)ccc3O[C@@H]3CCOC3)cn12` [Example 59, N-(tert-butylsulfonyl)-6-((2R,4S)-4-fluoro-2-(5-fluoro-2-(((R)-tetrahydrofuran-3-yl)oxy)phenyl)pyrrolidin-1-yl)imidazo[1,2-a]pyridine-3-carboxamide], the IC50 was no more than 50 nM.
Take `CCN(C)S(=O)(=O)NC(=O)c1cnc2ccc(N3C[C@@H](F)C[C@@H]3c3cc(F)ccc3O[C@@H]3CCOC3)cn12` [Example 60, N-(N-ethyl-N-methylsulfamoyl)-6-((2R,4S)-4-fluoro-2-(5-fluoro-2-(((R)-tetrahydrofuran-3-yl)oxy)phenyl)pyrrolidin-1-yl)imidazo[1,2-a]pyridine-3-carboxamide]: the concentration for half-maximal inhibition (IC50) is no more than 50 nM.
As for `CN(CCF)S(=O)(=O)NC(=O)c1cnc2ccc(N3C[C@@H](F)C[C@@H]3c3cc(F)ccc3O[C@@H]3CCOC3)cn12` [Example 62, 6-((2R,4S)-4-fluoro-2-(5-fluoro-2-(((R)-tetrahydrofuran-3-yl)oxy)phenyl)pyrrolidin-1-yl)-N-(N-(2-fluoroethyl)-N-methylsulfamoyl)imidazo[1,2-a]pyridine-3-carboxamide], the 50% inhibitory concentration (IC50) was no more than 50 nM.
As to `CCN(C)S(=O)(=O)NC(=O)c1cnc2ccc(N3C[C@@H](F)C[C@@H]3c3cc(F)cc4c3OCCO4)cn12` [Example 68, N-(N-ethyl-N-methylsulfamoyl)-6-((2R,4S)-4-fluoro-2-(7-fluoro-2,3-dihydrobenzo[b][1,4]dioxin-5-yl)pyrrolidin-1-yl)imidazo[1,2-a]pyridine-3-carboxamide], the IC50 was in the range of 50 to 100 nM.
Turning to `CCN(CC)S(=O)(=O)NC(=O)c1cnc2ccc(N3C[C@@H](F)C[C@@H]3c3cc(F)ccc3O[C@@H]3CCOC3)cn12` [Example 74, N—(N,N-diethylsulfamoyl)-6-((2R,4S)-4-fluoro-2-(5-fluoro-2-(((R)-tetrahydrofuran-3-yl)oxy)phenyl)pyrrolidin-1-yl)imidazo[1,2-a]pyridine-3-carboxamide], the half-maximal inhibitory concentration (IC50) was no more than 50 nM.
As for `CCN(CCF)S(=O)(=O)NC(=O)c1cnc2ccc(N3C[C@@H](F)C[C@@H]3c3cc(F)ccc3O[C@@H]3CCOC3)cn12` [Example 75, N—(N-ethyl-N-(2-fluoroethyl)sulfamoyl)-6-((2R,4S)-4-fluoro-2-(5-fluoro-2-(((R)-tetrahydrofuran-3-yl)oxy)phenyl)pyrrolidin-1-yl)imidazo[1,2-a]pyridine-3-carboxamide], the figure is no more than 50 nM; as for `COCCN(C)S(=O)(=O)NC(=O)c1cnc2ccc(N3C[C@@H](F)C[C@@H]3c3cc(F)ccc3O[C@@H]3CCOC3)cn12` [Example 76, 6-((2R,4S)-4-fluoro-2-(5-fluoro-2-(((R)-tetrahydrofuran-3-yl)oxy)phenyl)pyrrolidin-1-yl)-N—(N-(2-methoxyethyl)-N-methylsulfamoyl)imidazo[1,2-a]pyridine-3-carboxamide], no more than 50 nM; as for `CN(c1nccs1)S(=O)(=O)NC(=O)c1cnc2ccc(N3C[C@@H](F)C[C@@H]3c3cc(F)ccc3O[C@@H]3CCOC3)cn12` [Example 77, 6-((2R,4S)-4-fluoro-2-(5-fluoro-2-(((R)-tetrahydrofuran-3-yl)oxy)phenyl)pyrrolidin-1-yl)-N—(N-methyl-N-(thiazol-2-yl)sulfamoyl)imidazo[1,2-a]pyridine-3-carboxamide], no more than 50 nM.
On to `Cc1ccc(N(C)S(=O)(=O)NC(=O)c2cnc3ccc(N4C[C@@H](F)C[C@@H]4c4cc(F)ccc4O[C@@H]4CCOC4)cn23)nn1` [Example 78, 6-((2R,4S)-4-fluoro-2-(5-fluoro-2-(((R)-tetrahydrofuran-3-yl)oxy)phenyl)pyrrolidin-1-yl)-N—(N-methyl-N-(6-methylpyridazin-3-yl)sulfamoyl)imidazo[1,2-a]pyridine-3-carboxamide], for which the IC50 is no more than 50 nM.
Regarding `CC(C)(C)S(=O)(=O)NC(=O)c1cnc2ccc(N3CCC[C@@H]3c3cc(F)ccc3OC3CCOCC3)cn12` [Example 79, (R)—N-(tert-butylsulfonyl)-6-(2-(5-fluoro-2-((tetrahydro-2H-pyran-4-yl)oxy)phenyl)pyrrolidin-1-yl)imidazo[1,2-a]pyridine-3-carboxamide], the 50% inhibitory concentration (IC50) lay in the range of 100 to 500 nM.
On to `CCN(C)S(=O)(=O)NC(=O)c1cnc2ccc(N3CCC[C@@H]3c3cc(F)ccc3OC3CCOCC3)cn12` [Example 80, (R)—N—(N-ethyl-N-methylsulfamoyl)-6-(2-(5-fluoro-2-((tetrahydro-2H-pyran-4-yl)oxy)phenyl)pyrrolidin-1-yl)imidazo[1,2-a]pyridine-3-carboxamide], for which the IC50 was in the range of 50 to 100 nM.
As for `CN(c1nccs1)S(=O)(=O)NC(=O)c1cnc2ccc(N3CCC[C@@H]3c3cc(F)ccc3OC3CCOCC3)cn12` [Example 81, (R)-6-(2-(5-fluoro-2-((tetrahydro-2H-pyran-4-yl)oxy)phenyl)pyrrolidin-1-yl)-N—(N-methyl-N-(thiazol-2-yl)sulfamoyl)imidazo[1,2-a]pyridine-3-carboxamide], the figure is no more than 50 nM.
Then `COCCN(C)S(=O)(=O)NC(=O)c1cnc2ccc(N3CCC[C@@H]3c3cc(F)ccc3OC3CCOCC3)cn12` [Example 82, (R)-6-(2-(5-fluoro-2-((tetrahydro-2H-pyran-4-yl)oxy)phenyl)pyrrolidin-1-yl)-N—(N-(2-methoxyethyl)-N-methylsulfamoyl)imidazo[1,2-a]pyridine-3-carboxamide], with 50 to 100 nM; and `CCOCCN(C)S(=O)(=O)NC(=O)c1cnc2ccc(N3CCC[C@@H]3c3cc(F)ccc3OC3CCOCC3)cn12` [Example 83, (R)—N—(N-(2-ethoxyethyl)-N-methylsulfamoyl)-6-(2-(5-fluoro-2-((tetrahydro-2H-pyran-4-yl)oxy)phenyl)pyrrolidin-1-yl)imidazo[1,2-a]pyridine-3-carboxamide], with no more than 50 nM; and `CN(c1ccccn1)S(=O)(=O)NC(=O)c1cnc2ccc(N3CCC[C@@H]3c3cc(F)ccc3OC3CCOCC3)cn12` [Example 84, (R)-6-(2-(5-fluoro-2-((tetrahydro-2H-pyran-4-yl)oxy)phenyl)pyrrolidin-1-yl)-N—(N-methyl-N-(pyridin-2-yl)sulfamoyl)imidazo[1,2-a]pyridine-3-carboxamide], with no more than 50 nM.
In the case of `Cc1nnc(N(C)S(=O)(=O)NC(=O)c2cnc3ccc(N4CCC[C@@H]4c4cc(F)ccc4OC4CCOCC4)cn23)s1` [Example 85, (R)-6-(2-(5-fluoro-2-((tetrahydro-2H-pyran-4-yl)oxy)phenyl)pyrrolidin-1-yl)-N—(N-methyl-N-(5-methyl-1,3,4-thiadiazol-2-yl)sulfamoyl)imidazo[1,2-a]pyridine-3-carboxamide], the IC50 is no more than 50 nM.
With `CN(c1nncs1)S(=O)(=O)NC(=O)c1cnc2ccc(N3CCC[C@@H]3c3cc(F)ccc3OC3CCOCC3)cn12` [Example 86, (R)-6-(2-(5-fluoro-2-((tetrahydro-2H-pyran-4-yl)oxy)phenyl)pyrrolidin-1-yl)-N—(N-methyl-N-(1,3,4-thiadiazol-2-yl)sulfamoyl)imidazo[1,2-a]pyridine-3-carboxamide], the IC50 was no more than 50 nM.
As for `Cc1ccc(N(C)S(=O)(=O)NC(=O)c2cnc3ccc(N4CCC[C@@H]4c4cc(F)ccc4OC4CCOCC4)cn23)nn1` [Example 87, (R)-6-(2-(5-fluoro-2-((tetrahydro-2H-pyran-4-yl)oxy)phenyl)pyrrolidin-1-yl)-N—(N-methyl-N-(6-methylpyridazin-3-yl)sulfamoyl)imidazo[1,2-a]pyridine-3-carboxamide], the figure is no more than 50 nM; as for `CCCN(C)S(=O)(=O)NC(=O)c1cnc2ccc(N3C[C@@H](F)C[C@@H]3c3cc(F)ccc3OC3CCOCC3)cn12` [Example 88, 6-((2R,4S)-4-fluoro-2-(5-fluoro-2-((tetrahydro-2H-pyran-4-yl)oxy)phenyl)pyrrolidin-1-yl)-N—(N-methyl-N-propylsulfamoyl)imidazo[1,2-a]pyridine-3-carboxamide], no more than 50 nM.
With `COCCN(C)S(=O)(=O)NC(=O)c1cnc2ccc(N3C[C@@H](F)C[C@@H]3c3cc(F)ccc3OC3CCOCC3)cn12` [Example 89, 6-((2R,4S)-4-fluoro-2-(5-fluoro-2-((tetrahydro-2H-pyran-4-yl)oxy)phenyl)pyrrolidin-1-yl)-N—(N-(2-methoxyethyl)-N-methylsulfamoyl)imidazo[1,2-a]pyridine-3-carboxamide], the IC50 is no more than 50 nM.
For `CN(c1ccn(C)n1)S(=O)(=O)NC(=O)c1cnc2ccc(N3CCC[C@@H]3c3cc(F)ccc3F)cn12` [Example 90, (R)-6-(2-(2,5-difluorophenyl)pyrrolidin-1-yl)-N—(N-methyl-N-(1-methyl-1H-pyrazol-3-yl)sulfamoyl)imidazo[1,2-a]pyridine-3-carboxamide], the IC50 was no more than 50 nM.
For `CN(c1ccn(C)n1)S(=O)(=O)NC(=O)c1cnc2ccc(N3CCC[C@@H]3c3cc(F)ccc3OC3CCOCC3)cn12` [Example 91, (R)-6-(2-(5-fluoro-2-((tetrahydro-2H-pyran-4-yl)oxy)phenyl)pyrrolidin-1-yl)-N—(N-methyl-N-(1-methyl-1H-pyrazol-3-yl)sulfamoyl)imidazo[1,2-a]pyridine-3-carboxamide], the IC50 lay in the range of 50 to 100 nM.
In the case of `CN(c1ccn(C)n1)S(=O)(=O)NC(=O)c1cnc2ccc(N3C[C@@H](F)C[C@@H]3c3cc(F)ccc3O[C@@H]3CCOC3)cn12` [Example 92, 6-((2R,4S)-4-fluoro-2-(5-fluoro-2-(((R)-tetrahydrofuran-3-yl)oxy)phenyl)pyrrolidin-1-yl)-N—(N-methyl-N-(1-methyl-1H-pyrazol-3-yl)sulfamoyl)imidazo[1,2-a]pyridine-3-carboxamide], the half-maximal inhibitory concentration (IC50) is no more than 50 nM.
